Each compound was assayed on Isolated Rat Bladder Strips (assay: Inhibition of contractions in isolated rat bladder strips (KCl-enhanced contractile activity)). Conditions: 0.5 h, concentration required to elicit 50% inhibition of pre-drug contractile activity, additional 15 mM KCl, 30 minute challenge per concentration, value ± spread as printed.
Set-up: species or system Sprague-Dawley rats
Source text: Sprague-Dawley rats (150-200 g) are rendered unconscious by CO2 asphyxiation and then euthanized by cervical dislocation. The bladder is removed into warm (37 deg.C) physiological salt solution (PSS) of the following composition (mM): NaCl, 118.4; KCl, 4.7; CaCl2, 2.5; […]; NaHCO3, 24.9; KH2PO4, 1.2; glucose, 11.1; EDTA, 0.023; gassed with […]; pH 7.4. The bladder is opened and then cut into strips 1-2 mm in width and 7-10 mm in length. The strips are subsequently suspended in a 10 mL tissue bath under an initial resting tension of 1.5 g. The strips are held in place by two surgical clips one of which is attached to a fixed hook while the other is attached to an isometric force transducer. […] The carbachol is then washed out and the tissue allowed to relax to its resting level of activity. Following a further 30 min period of recovery an additional 15 mM KCl are introduced into the tissue bath. This increase in KCI concentration results in a large increase in the amplitude of spontaneous contractions (and initiation of contractions in previously quiescent strips) superimposed upon a small increase in basal tone. Following stabilization of this enhanced level of contractile activity, incremental increases in the concentration of test compound or vehicle are introduced into the tissue bath. Contractile activity is measured for each compound or vehicle concentration during the last minute of a 30 minute challenge.
The isometric force developed by the bladder strips is measured using a […] to elicit 50% inhibition of pre-drug contractile activity (IC50 concentration) is calculated from this concentration-response curve.

In order of falling IC50:
1. CC(C)CC(=O)N(c1ccncc1)c1c(N[C@H](C)C(C)(C)C)c(=O)c1=O [Example 25, (R)-N-[3,4-Dioxo-2-(1,2,2-trimethyl-propylamino)-cyclobut-1-enyl]-3-methyl-N-(pyridin-4-yl)-butyramide]  10.8 ± 1.6 µM
2. CC(=O)N(c1ccncc1)c1c(NC2CC3CCC2C3)c(=O)c1=O (racemic) [Example 21, (endo)-N-[2-(Bicyclo[2,2,1]hept-2-ylamino)-3,4-dioxo-cyclobut-1-enyl]-N-(pyridin-4-yl)-acetamide]  10.6 µM
3. CC(=O)N(c1ccc(C#N)cc1)c1c(NC(C)C)c(=O)c1=O [Example 11, N-(4-Cyano-phenyl)-N-[3,4-dioxo-2-isopropylamino-cyclobut-1-enyl]-acetamide]  9.7 ± 4.1 µM
4. CC(=O)N(c1cccnc1)c1c(N[C@H](C)C(C)(C)C)c(=O)c1=O [Example 23, (R)-N-[3,4-Dioxo-2-(1,2,2-trimethyl-propylamino)-cyclobut-1-enyl]-N-(pyridin-3-yl)-acetamide]  7.2 ± 1.6 µM
5. CCCCC(=O)N(c1ccncc1)c1c(N[C@H](C)C(C)(C)C)c(=O)c1=O [Example 26, (R)-(-)-N-(3,4-Dioxo-2-(1,2,2-trimethyl-propylamino)-cyclobut-1-enyl]-N-(pyridin-4-yl)-pentylamide]  4.9 ± 1.2 µM
6. CC(=O)N(c1cccc(C#N)c1)c1c(NC(C)C(C)(C)C)c(=O)c1=O (stereo not drawn) [Example 14, N-(3-Cyano-phenyl)-N-[3,4-dioxo-2-(1,2,2-trimethyl-propylamino)-cyclobut-1-enyl]-acetamide]  3.2 ± 0.92 µM
7. CC(=O)N(c1ccncc1)c1c(N[C@H](C)C(C)(C)C)c(=O)c1=O [Example 24, (R)-N-[3,4-Dioxo-2-(1,2,2-trimethyl-propylamino)-cyclobut-1-enyl]-N-(pyridin-4-yl)-acetamide]  2.5 ± 0.2 µM
8. CC(=O)N(c1ccc(C#N)cc1)c1c(NC2CC3CCC2C3)c(=O)c1=O (racemic) [Example 17, N-(endo)-[2-(Bicyclo[2,2,1]hept-2-ylamino)-3,4-dioxo-cyclobut-1-enyl]-N-(4-cyano-phenyl)-acetamide]  1.84 ± 0.36 µM
9. CCCCNc1c(N(C(C)=O)c2ccc(C#N)cc2)c(=O)c1=O [Example 16, N-(2-Butylamino-3,4-dioxo-cyclobut-1-enyl)-N-(4-cyano-phenyl)-acetamide]  1.24 ± 0.54 µM
10. CCc1cc(C#N)ccc1N(C(=O)C1CCCCC1)c1c(N[C@H](C)C(C)(C)C)c(=O)c1=O [Example 32, (R)-(-)-N-(4-cyano-2-ethyl-phenyl)-N-[3,4-dioxo-2-(1,2,2-trimethyl-propylamino)-cyclobut-1-enyl]-cyclohexanecarboxamide]  0.63 ± 0.065 µM
11. CCCCC(=O)N(c1ccc(C#N)cc1CC)c1c(N[C@H](C)C(C)(C)C)c(=O)c1=O [Example 31, (R)-(-)-N-(4-Cyano-2-ethyl-phenyl)-N-[3,4-dioxo-2-(1,2,2-trimethyl-propylamino)-cyclobut-1-enyl]-pentanamide]  0.61 ± 0.2 µM
12. CC(C)C(=O)N(c1ccc(C#N)cc1)c1c(NC(C)C(C)(C)C)c(=O)c1=O (stereo not drawn) [Example 6, N-(4-Cyano-phenyl)-N-[3,4-dioxo-2-(1,2,2-trimethyl-propylamino)-cyclobut-1-enyl]-isobutyramide]  0.57 ± 0.2 µM
13. CCC(=O)N(c1ccc(C#N)cc1)c1c(NC(C)C(C)(C)C)c(=O)c1=O (stereo not drawn) [Example 1, N-(4-Cyano-phenyl)-N-[3,4-dioxo-2-(1,2,2-trimethyl-propylamino)-cyclobut-1-enyl]-propionamide]  0.5 µM
14. CC(Nc1c(N(C(=O)C=Cc2ccccc2)c2ccc(C#N)cc2)c(=O)c1=O)C(C)(C)C (stereo not drawn) [Example 7, N-(4-Cyano-phenyl)-N-[3,4-dioxo-2-(1,2,2-trimethyl-propylamino)cyclobut-1-enyl]-3-phenyl-acrylamide]  0.37 ± 0.08 µM
15. CCCCCC(=O)N(c1ccc(C#N)cc1)c1c(NC(C)C(C)(C)C)c(=O)c1=O (stereo not drawn) [Example 5, Hexanoic acid (4-cyano-phenyl)-[3,4-dioxo-2-(1,2,2-trimethyl-propylamino)-cyclobut-1-enyl]-amide]  0.35 ± 0.1 µM
16. CCc1cc(C#N)ccc1N(C(C)=O)c1c(N[C@H](C)C(C)(C)C)c(=O)c1=O [Example 30, (R)-(-)-N-(4-Cyano-2-ethyl-phenyl)-N-[3,4-dioxo-2-(1,2,2-trimethyl-propylamino)-cyclobut-1-enyl]-acetamide]  0.35 ± 0.1 µM
17. CC(=O)N(c1ccc(C#N)cc1)c1c(N[C@H](C)C(C)(C)C)c(=O)c1=O [Example 10, (R)-(-)-N-(4-Cyano-phenyl)-N-[3,4-dioxo-2-(1,2,2-trimethyl-propylamino)-cyclobut-1-enyl]-acetamide]  0.31 ± 0.05 µM
18. CC(Nc1c(N(C(=O)c2ccccc2)c2ccc(C#N)cc2)c(=O)c1=O)C(C)(C)C (stereo not drawn) [Example 2, N-(4-Cyano-phenyl)-N-[3,4-dioxo-2-(1,2,2-trimethyl-propylamino)-cyclobut-1-enyl]-benzamide]  0.29 ± 0.04 µM
19. C/C=C/C(=O)N(c1ccc(C#N)cc1CC)c1c(N[C@H](C)C(C)(C)C)c(=O)c1=O [Example 29, (R)-(-)-N-(4-Cyano-2-ethylphenyl)-N-[3,4-dioxo-2-(1,2,2-trimethyl-propylamino)-cyclobut-1-enyl]-crotonamide]  0.27 ± 0.02 µM
20. CC(=O)N(c1ccc(C#N)cc1)c1c(NC(C)C(C)(C)C)c(=O)c1=O (stereo not drawn) [Example 9, N-(4-Cyano-phenyl)-N-[3,4-dioxo-2-(1,2,2-trimethyl-propylamino)-cyclobut-1-enyl]-acetamide]  0.23 ± 0.05 µM
21. CCC(=O)N(c1ccc(C#N)cc1CC)c1c(N[C@H](C)C(C)(C)C)c(=O)c1=O [Example 28, (R)-N-(4-Cyano-2-ethyl-phenyl)-N-[3,4-dioxo-2-(1,2,2-trimethyl-propylamino)-cyclobut-1-enyl]-propionamide]  0.22 ± 0.2 µM
22. CC(=O)N(c1ccc(C#N)cc1)c1c(NC(C)C(C)C)c(=O)c1=O (stereo not drawn) [Example 13, N-(4-Cyano-phenyl)-N-[2-(1,2-dimethyl-propylamino)-3,4-dioxo-cyclobut-1-enyl]-acetamide]  0.2 ± 0.1 µM
23. CC(=O)N(c1ccc(C#N)c(Cl)c1)c1c(N[C@H](C)C(C)(C)C)c(=O)c1=O [Example 33, (R)-(-)-N-(3-Chloro-4-cyano-phenyl)-N-[3,4-dioxo-2-(1,2,2-trimethyl-propylamino)-cyclobut-1-enyl]-acetamide]  0.19 ± 0.01 µM
24. CCCC(=O)N(c1ccc(C#N)cc1CC)c1c(N[C@H](C)C(C)(C)C)c(=O)c1=O [Example 27, (R)-(-)-N-(4-Cyano-2-ethyl-phenyl)-N-[3,4-dioxo-2-(1,2,2-trimethyl-propylamino)-cyclobut-1-enyl]-butyramide]  0.17 ± 0.004 µM
